Source: patent US6358990B1, “Method for treating Alzheimer's disease” (Boehringer Mannheim Pharmaceuticals Corp., priority 1997, dated 2002)

System: IMR32 human neuroblastoma cells
Experiment: Inhibition of the formation of toxic aggregates of beta-amyloid 1-40 peptide (MTT reduction in IMR32 cells)
Type: cell-based
Description: Determination of the Inhibition of the Formation of Toxic Aggregates of Beta-Amyloid 1-40 Peptide
Beta-amyloid (1-40) peptide from Bachem UK was dissolved in 0.1% acetic acid at 2 mg/ml and further diluted to 55 ug/ml in phosphate buffered saline (Sigma P4417) containing 0.02% Tween 20 (PBS-Tween). Candidate inhibitors were dissolved in DMSO at 10 mg/ml and further diluted in PBS-Tween. For each candidate inhibitor, 45 ul of 55 ug/ml peptide solution was incubated with 5 ul of appropriately diluted inhibitor overnight at 37° C. in Linbro Titertek EIA II shallow well plates (ICN, EIA II Microplates, cat no. 76-181-04). Plates were sealed with Dynatech Labs (cat # 001-010 3501) plate sealers.
MTT (3(4,5-dimethylthiazol-2-yl)-2,5-diphenyl tetrazolium bromide—Sigma) is a metabolic dye taken up by the mitochondria of viable cells and metabolised, yielding a blue formazan crystalline product. […]
For the assessment of toxicity, IMR32 human neuroblastoma cells (ECACC, Porton Down, UK) were plated at 6×10^4 cells/cm^2 in a 96 well microtitre plate (Nunc) in a volume of 100 ul growth medium (DMEM:Hams F12 1:1) per well and incubated for 2 h (CO2 incubator, 37° C.). […] Plates were read at 590 nm and inhibition of toxicity assessed as the difference in OD reading between cells in the presence and absence of candidate inhibitors. […]

Q: `COc1ccccc1OCCNCC(O)COc1cccc2[nH]c3ccccc3c12` (centres unmarked) [carvedilol] was tested. Which “shift of the beta-amyloid 1-40 concentration-response curve (decrease in MTT reduction)” value (50 ug/ml beta-amyloid 1-40 incubated overnight with 50 ug/ml carvedilol, cells challenged with 0 to 10 ng/ml beta-amyloid 1-40) did it give?
A: The value was “marked shift to the right”.

Q: And the “decrease in MTT reduction” value (50 ug/ml carvedilol during the aggregation step, 0.1 to 1 ng/ml of peptide on IMR32 cells)?
A: The value was “no decrease in MTT reduction was observed”.
